Tests used:
Assay type in all cases: cell-based, human
[1] = tested on: Circulating Tumour Cells (CTCs) from a patient with sex cord stromal tumour, ovarian tumour; experiment: Drug response score assay on CTCs from blood, Example 4; set-up: key to Drug response score, conc. 1 / Drug response score, conc. 2 / Drug response score, conc. 3 / Drug response score, conc. 4: normalized drug response metric (Gupta et al. 2020); conditions: for Drug response score, conc. 1: conc. 1: Cyclo 2.5 μg/ml, Vinc 10 ng/ml, Etop 1 μg/ml, Bini 100 ng/ml, Doxo 10 ng/ml; for Drug response score, conc. 1 / Drug response score, conc. 2 / Drug response score, conc. 3 / Drug response score, conc. 4: CTCs, t96h; for Drug response score, conc. 2: conc. 2: Cyclo 10 μg/ml, Vinc 20 ng/ml, Etop 4 μg/ml, Bini 200 ng/ml, Doxo 30 ng/ml; for Drug response score, conc. 3: conc. 3: Cyclo 40 μg/ml, Vinc 40 ng/ml, Etop 20 μg/ml, Bini 400 ng/ml, Doxo 90 ng/ml; for Drug response score, conc. 4: conc. 4: Cyclo 160 μg/ml, Vinc 80 ng/ml, Etop 100 μg/ml, Bini 800 ng/ml, Doxo 270 ng/ml; for effectiveness on Circulating Tumour Cells (CTCs) under laboratory conditions / Drug sensitivity as calculated by the assay (interpretation of Drug Response Scores): sex cord stromal / ovarian tumour CTCs; for Drug sensitivity as calculated by the assay (interpretation of Drug Response Scores): Table 14
Method: (§1) CD45^+ cells and circulating tumour cells (CTCs) were isolated from a blood sample provided by each subject.
(§2) CD45 separation was performed by adding human CD45 microbeads (50 μl/ml blood), incubating for 15 minutes at 4° C. and then processing using an AutoMACS machine. This separates the blood sample into CD45^+ and CD45^−cells in 2 separate falcons. The falcon tubes are then centrifuged at 1200 rpm for 5 minutes.
(§3) The supernatant was removed from the CD45^−falcon tube, and the CD45^−cells contacted with 100 μl of FcR block and 100 μl of CD326 (EpCAM) MicroBeads, followed by incubation at […] 4° C. for 30 minutes. The CD45^−cells were then processed using an AutoMACS machine to separate the EpCAM positive and negative cells into 2 separate falcon tubes. The EpCAM-cells were discarded. The supernatant was removed from the EpCAM^+ cells, and the cells resuspended in DMEM with 2 μl Cell Tox, 2 μl MT and 2 μl MT. 20 μl of the resuspended pellet was then added to all sample wells excluding a blank. After all wells are added to, a cell count was conducted on the […] to determine the number of circulating tumour cells (CTCs).
(§4) The different cell types were each divided equally into populations, depending on the number of drugs/concentrations to be tested and plated on a cell-culture plate pre-coated with a scaffold of polycaprolactone (PCL) electrospun fibres and incubated at 37° C., 5% CO2, for 5 to (typically 10) minutes to facilitate cell attachment. After attachment, an initial imaging step was carried out using the RealTime-Glo™ MT assay from Promega (Catalogue No. G9711)) and the CellTox™ Green Cytotoxicity Assay (Promega, Catalogue No. G8741), carried out according to manufacturer's instructions. Following this initial imagining, the immunotherapeutic and/or chemotherapeutic agents were added to the cell populations as indicated below. After 10 minutes, the imagining step was repeated. The cell populations were then incubated at 37° C., 5% CO2 for 48 hours. The imaging step was then repeated. The cell populations were then re-dosed with the same immunotherapeutic and/or chemotherapeutic agents as indicated below, and incubated at 37° C., 5% CO2 for a further 48 hours. After this second 48 hour incubation, the imagining step was repeated for a final time.
(§5) At the end of this culture period, dose response scores were calculated using a normalized drug response metric as described in Gupta et al. (Communications Biology volume 3, Article number: 42 (2020), https://doi.org/10.1038/s42003-020-0765-z). The start readout for a given immunotherapeutic or chemotherapeutic agent at a given concentration was the to readout for said immunotherapeutic or chemotherapeutic agent at a specified concentration. The end readout for a given immunotherapeutic or chemotherapeutic agent at a given concentration was the final timepoint reading (t96h) for said immunotherapeutic or chemotherapeutic agent at a specified concentration.
(§6) The positive control start readout for a given drug/concentration was the to readout for the corresponding drug at a specified concentration. The positive control end readout for the corresponding drug at a specified concentration was the final timepoint reading (t96h) for the corresponding blank well.
(§7) The negative control start and end readouts for a given immunotherapeutic or chemotherapeutic agent at a given concentration were the to and final timepoint reading (t96h) respectively for blank cell or blank immuno cell well respectively.
(§8) The sensitivity or resistance of a subject's cancer to a given immunotherapeutic or chemotherapeutic agent was determined based on the calculated drug response score as shown in Table 2.
Blood samples from a patient with sex cord stromal tumour, ovarian tumour (epitheliod neoplasm, stage 3 recurrence after surgery (resection) and previous chemotherapy) were received on 19 Jul. 2021 and tested using a 5 drug panel. […]

[2] = tested on: Circulating Tumour Cells (CTCs, EpCam+CD45−) from a patient with stage II synovial sarcoma; experiment: Drug response score assay (RealTime-Glo MT / CellTox Green, PCL scaffold) on CTCs from blood, Example 1; set-up: key to Drug response score, conc. 1 / Drug response score, conc. 2 / Drug response score, conc. 3 / Drug response score, conc. 4: normalized drug response metric per Gupta et al. 2020; conditions: for Drug response score, conc. 1: conc. 1: Doxo 10 ng/ml, Ifos 0.125 μg/ml, Gemcit 2 μg/ml, Doce 0.02 μg/ml, Carbo 2 μg/ml, Dacarb 1.5 μg/ml, re-dosed at 48 h; for Drug response score, conc. 1 / Drug response score, conc. 2 / Drug response score, conc. 3 / Drug response score, conc. 4: CTCs, t96h; for Drug response score, conc. 2: conc. 2: Doxo 30 ng/ml, Ifos 0.25 μg/ml, Gemcit 10 μg/ml, Doce 0.2 μg/ml, Carbo 5 μg/ml, Dacarb 3 μg/ml; for Drug response score, conc. 3: conc. 3: Doxo 90 ng/ml, Ifos 5 μg/ml, Gemcit 20 μg/ml, Doce 2 μg/ml, Carbo 10 μg/ml, Dacarb 6 μg/ml; for Drug response score, conc. 4: conc. 4: Doxo 270 ng/ml, Ifos 10 μg/ml, Gemcit 40 μg/ml, Doce 10 μg/ml, Carbo 20 μg/ml, Dacarb 12 μg/ml
Method: as §1, §2, §3, §4, §5, §6, §7, §8
Blood samples from a patient with stage II synovial sarcoma (suspected spindle cell tumour) were received and tested using a 6 drug panel.
Chemotherapeutic agents were tested as in Table 3.

[3] = tested on: Circulating Tumour Cells (CTCs) from a patient with colon cancer (sigmoid colon cancer); experiment: Drug response score assay on CTCs from blood, Example 8; set-up: key to Drug response score, conc. 1 / Drug response score, conc. 2 / Drug response score, conc. 3 / Drug response score, conc. 4: normalized drug response metric (Gupta et al. 2020); conditions: for Drug response score, conc. 1: conc. 1 of each drug as in Table 24; for Drug response score, conc. 1 / Drug response score, conc. 2 / Drug response score, conc. 3 / Drug response score, conc. 4: CTCs, t96h; for Drug response score, conc. 2: conc. 2 of each drug as in Table 24; for Drug response score, conc. 3: conc. 3 of each drug as in Table 24; for Drug response score, conc. 4: conc. 4 of each drug as in Table 24; for Drug sensitivity as calculated by the assay (interpretation of Drug Response Scores): Table 26
Method: as §1, §2, §3
as §4, with “After” for “The different cell types were each divided equally into populations, depending on the number of drugs/concentrations to be tested and plated on a cell-culture plate pre-coated with a scaffold of polycaprolactone (PCL) electrospun fibres and incubated at 37° C., 5% CO2, for 5 to (typically 10) minutes to facilitate cell attachment. After”
as §5, §6, §7, §8
Blood samples from a patient with colon cancer (sigmoid colon cancer) were received on 8 Mar. 2022 and tested using a 9 drug panel.
Chemotherapeutic agents were tested as in Table 24.

[4] = tested on: Circulating Tumour Cells (CTCs) from a patient with renal cancer; experiment: Drug response score assay on CTCs (with CD45+ cells for immunotherapy) from blood, Example 7; set-up: key to Drug response score, conc. 1 / Drug response score, conc. 2 / Drug response score, conc. 3 / Drug response score, conc. 4: normalized drug response metric per Gupta et al. 2020; conditions: for Drug response score, conc. 1: conc. 1: Pembr 20 μg/ml (CTCs + CD45+ cells), Docetax 0.02 μg/ml, Gemcit 2 μg/ml, Topo 5 μg/ml, Etop 1 μg/ml, Eribul 5 μg/ml (CTCs); for Drug response score, conc. 1 / Drug response score, conc. 2 / Drug response score, conc. 3 / Drug response score, conc. 4: t96h; for Drug response score, conc. 2: conc. 2: Pembr 40 μg/ml (CTCs + CD45+ cells), Docetax 0.2 μg/ml, Gemcit 10 μg/ml, Topo 10 μg/ml, Etop 4 μg/ml, Eribul 10 μg/ml (CTCs); for Drug response score, conc. 3: conc. 3: Pembr 100 μg/ml (CTCs + CD45+ cells), Docetax 2 μg/ml, Gemcit 20 μg/ml, Topo 50 μg/ml, Etop 20 μg/ml, Eribul 20 μg/ml (CTCs); for Drug response score, conc. 4: conc. 4: Pembr 160 μg/ml (CTCs + CD45+ cells), Docetax 10 μg/ml, Gemcit 40 μg/ml, Topo 100 μg/ml, Etop 100 μg/ml, Eribul 40 μg/ml (CTCs); for Drug sensitivity as calculated by the assay (interpretation of Drug Response Scores): Table 23
Method: as §1, §2
The supernatant was removed from the CD45^+falcon tube, and the cells resuspended in DMEM with 2 μl Cell Tox, 2 μl MT and 2 μl MT. 20 μl of the resuspended CD45^+ cells was then plated in each well which will contain an immunotherapy treatment.
as §3, §4, §5, §6, §7
The sensitivity or resistance of a subject's cancer to a given immunotherapeutic or chemotherapeutic agent was determined based on the calculated drug response score as shown in Table 2. […]

| SMILES | Drug response score, conc. 1 [1] | Drug response score, conc. 2 [1] | Drug response score, conc. 3 [1] | Drug response score, conc. 4 [1] | effectiveness on Circulating Tumour Cells (CTCs) under laboratory conditions [1] | Drug sensitivity as calculated by the assay (interpretation of Drug Response Scores) [1] | Drug response score, conc. 1 [3] | Drug response score, conc. 2 [3] | Drug response score, conc. 3 [3] | Drug response score, conc. 4 [3] | Drug sensitivity as calculated by the assay (interpretation of Drug Response Scores) ([3]; sigmoid colon cancer CTCs) | also measured |
| --- | --- | --- | --- | --- | --- | --- | --- | --- | --- | --- | --- | --- |
| Cn1cnc2c(F)c(Nc3ccc(Br)cc3F)c(C(=O)NOCCO)cc21 [Binimetinib] | 0.93 | 1.18 | 1.19 | 1.06 | not effective | Resistant | – | – | – | – | – | – |
| N.N.O=C([O-])C1(C(=O)[O-])CCC1.[Pt+2] [Carboplatin] | – | – | – | – | – | – | 6.6672 | −0.0506 | −0.8131 | −0.1322 | Sensitive (S++) | Drug response score, conc. 1 [2]: 1.4015; Drug response score, conc. 2 [2]: 0.6497; Drug response score, conc. 3 [2]: 0.4151; Drug response score, conc. 4 [2]: 0.4317; Drug sensitivity as calculated by the assay (interpretation of Drug Response Scores) ([2]; synovial sarcoma CTCs, Table 5): Sensitive (S+) |
| O=P1(N(CCCl)CCCl)NCCCO1 (stereo not drawn) [Cyclophosphamide] | 0.97 | 0.58 | 0.41 | 0.94 | show effectiveness | Sensitive (S++) | −0.3176 | 0.9581 | 0.6810 | 2.5058 | Sensitive (S+) | effectiveness on Circulating Tumour Cells under laboratory conditions ([3]; sigmoid colon cancer CTCs): S+ |
| CN(C)/N=N/c1[nH]cnc1C(N)=O [Dacarbazine] | – | – | – | – | – | – | – | – | – | – | – | Drug response score, conc. 1 [2]: 2.1563; Drug response score, conc. 2 [2]: 0.0887; Drug response score, conc. 3 [2]: 0.1691; Drug response score, conc. 4 [2]: 0.5700 |
| C=C1C[C@@H]2CC[C@@]34C[C@H]5O[C@H]6[C@@H](O3)[C@H]3O[C@H](CC[C@@H]3O[C@H]6[C@H]5O4)CC(=O)C[C@@H]3[C@@H](OC)[C@@H](C[C@H](O)CN)O[C@H]3C[C@H]3O[C@@H](CC[C@@H]1O2)C[C@@H](C)C3=C [Eribuline] | – | – | – | – | – | – | 4.4627 | −0.1620 | −0.0329 | −0.4785 | Sensitive (S++) | Drug response score, conc. 1 [4]: 0.4482; Drug response score, conc. 2 [4]: 0.0692; Drug response score, conc. 3 [4]: −0.1453; Drug response score, conc. 4 [4]: −0.0193; Drug sensitivity as calculated by the assay (interpretation of Drug Response Scores) ([4]; renal cancer CTCs): Sensitive (S+) |
| CC[C@@]1(O)C(=O)OCc2c1cc1n(c2=O)Cc2cc3c(CN(C)C)c(O)ccc3nc2-1 [Topotecan] | – | – | – | – | – | – | – | – | – | – | – | Drug response score, conc. 1 [4]: 0.1847; Drug response score, conc. 2 [4]: −0.0648; Drug response score, conc. 3 [4]: −0.0964; Drug response score, conc. 4 [4]: −0.1707; effectiveness on Circulating Tumour Cells under laboratory conditions ([4]; renal cancer CTCs): Sensitive S++; Drug sensitivity as calculated by the assay (interpretation of Drug Response Scores) ([4]; renal cancer CTCs): Sensitive (S++) |
| CC[C@]1(O)C[C@H]2CN(CCc3c([nH]c4ccccc34)[C@@](C(=O)OC)(c3cc4c(cc3OC)N(C=O)[C@H]3[C@@](O)(C(=O)OC)[C@H](OC(C)=O)[C@]5(CC)C=CCN6CC[C@]43[C@@H]65)C2)C1 [Vincristine] | 3.35 | 1.24 | 1.83 | 1.29 | not effective | Resistant | – | – | – | – | – | – |
